Assay [1] addresses Serine/threonine-protein kinase PAK 4 (Homo sapiens) (UniProt O96013). The assay can be described thus: Inhibition of human recombinant PAK4 at 40 nM related to control ULK1.
Assay [2] concerns the target Serine/threonine-protein kinase WNK3 (Homo sapiens) (UniProt Q9BYP7). Put plainly: Inhibition of human recombinant Wnk3 at 40 nM related to control ULK1.
The target in assay [3] is Fibroblast growth factor receptor 4 (Homo sapiens) (UniProt P22455). The assay can be described thus: Inhibition of human recombinant FGFR4 at 40 nM related to control ULK1.
Assay [4] has as its target Hepatocyte growth factor receptor MET (Homo sapiens) (UniProt P08581). The assay can be described thus: Inhibition of human recombinant MET at 40 nM in presence of ATP by radiometric assay relative to control.
Assay [5] addresses Interferon-induced, double-stranded RNA-activated protein kinase (Homo sapiens) (UniProt P19525). Put plainly: Inhibition of human recombinant PKR at 40 nM related to control ULK1.
In assay [6] the target is Serine/threonine-protein kinase SBK1 (Homo sapiens) (UniProt Q52WX2). Put plainly: Inhibition of human recombinant SBK1 at 40 nM related to control ULK1.
Assay [7] concerns the target Tyrosine-protein kinase JAK2 (Homo sapiens) (UniProt O60674). The assay can be described thus: Inhibition of human recombinant JAK2 at 40 nM in presence of ATP by radiometric assay relative to control.
Assay [8] addresses T1, Serine/threonine-protein kinase Nek1 (Homo sapiens) (UniProt Q96PY6).
T1 sequence (whole entry): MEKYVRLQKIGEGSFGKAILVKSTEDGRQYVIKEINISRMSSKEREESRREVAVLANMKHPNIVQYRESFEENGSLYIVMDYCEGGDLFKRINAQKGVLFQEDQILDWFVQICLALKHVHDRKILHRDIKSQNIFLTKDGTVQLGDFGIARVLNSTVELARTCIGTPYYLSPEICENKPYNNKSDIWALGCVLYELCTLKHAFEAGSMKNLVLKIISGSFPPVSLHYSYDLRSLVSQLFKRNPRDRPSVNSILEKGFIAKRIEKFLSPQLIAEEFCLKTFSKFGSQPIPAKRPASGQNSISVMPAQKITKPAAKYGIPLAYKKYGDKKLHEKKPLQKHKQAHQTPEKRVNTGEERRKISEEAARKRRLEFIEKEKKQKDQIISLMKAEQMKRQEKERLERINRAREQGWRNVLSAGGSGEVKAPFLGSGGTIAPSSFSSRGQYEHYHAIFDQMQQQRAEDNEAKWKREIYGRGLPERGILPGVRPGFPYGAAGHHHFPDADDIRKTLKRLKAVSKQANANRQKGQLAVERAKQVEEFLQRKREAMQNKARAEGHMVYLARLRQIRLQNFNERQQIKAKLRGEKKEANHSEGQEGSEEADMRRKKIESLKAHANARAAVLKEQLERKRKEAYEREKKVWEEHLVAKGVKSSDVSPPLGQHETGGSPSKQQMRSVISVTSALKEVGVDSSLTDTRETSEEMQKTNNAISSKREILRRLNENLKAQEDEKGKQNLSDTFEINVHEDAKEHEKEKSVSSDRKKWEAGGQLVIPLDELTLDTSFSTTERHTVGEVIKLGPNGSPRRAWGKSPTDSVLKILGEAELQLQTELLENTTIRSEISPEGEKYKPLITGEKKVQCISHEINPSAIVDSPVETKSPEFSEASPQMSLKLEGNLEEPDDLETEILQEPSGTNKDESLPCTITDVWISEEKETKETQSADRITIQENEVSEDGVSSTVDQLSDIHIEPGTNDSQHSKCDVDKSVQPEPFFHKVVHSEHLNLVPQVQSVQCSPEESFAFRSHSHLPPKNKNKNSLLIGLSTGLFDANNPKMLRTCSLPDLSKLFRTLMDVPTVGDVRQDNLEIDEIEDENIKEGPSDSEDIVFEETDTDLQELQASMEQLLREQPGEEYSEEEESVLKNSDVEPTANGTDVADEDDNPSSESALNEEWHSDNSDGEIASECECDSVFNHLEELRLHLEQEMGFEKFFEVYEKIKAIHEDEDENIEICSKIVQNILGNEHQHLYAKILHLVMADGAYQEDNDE
The assay can be described thus: Inhibition of human recombinant NEK1 at 500 nM related to control ULK1.

The target of assay [9] is Cyclin-dependent kinase 2 (Homo sapiens) (UniProt P24941). Put plainly: Inhibition of human recombinant CDK2 at 500 nM related to control ULK1.
Assay [10] concerns the target Glycogen synthase kinase-3 beta (Homo sapiens) (UniProt P49841). Put plainly: Inhibition of human recombinant GSK3B at 500 nM in presence of ATP by radiometric assay relative to control.
For assay [11], the target named is Cyclin-dependent kinase 13 (Homo sapiens) (UniProt Q14004). The assay can be described thus: Inhibition of human recombinant CHED at 500 nM in presence of ATP by radiometric assay relative to control.
Assay [12] deals with T2, Homeodomain-interacting protein kinase 4 (Homo sapiens) (UniProt Q8NE63).
T2 sequence (whole entry): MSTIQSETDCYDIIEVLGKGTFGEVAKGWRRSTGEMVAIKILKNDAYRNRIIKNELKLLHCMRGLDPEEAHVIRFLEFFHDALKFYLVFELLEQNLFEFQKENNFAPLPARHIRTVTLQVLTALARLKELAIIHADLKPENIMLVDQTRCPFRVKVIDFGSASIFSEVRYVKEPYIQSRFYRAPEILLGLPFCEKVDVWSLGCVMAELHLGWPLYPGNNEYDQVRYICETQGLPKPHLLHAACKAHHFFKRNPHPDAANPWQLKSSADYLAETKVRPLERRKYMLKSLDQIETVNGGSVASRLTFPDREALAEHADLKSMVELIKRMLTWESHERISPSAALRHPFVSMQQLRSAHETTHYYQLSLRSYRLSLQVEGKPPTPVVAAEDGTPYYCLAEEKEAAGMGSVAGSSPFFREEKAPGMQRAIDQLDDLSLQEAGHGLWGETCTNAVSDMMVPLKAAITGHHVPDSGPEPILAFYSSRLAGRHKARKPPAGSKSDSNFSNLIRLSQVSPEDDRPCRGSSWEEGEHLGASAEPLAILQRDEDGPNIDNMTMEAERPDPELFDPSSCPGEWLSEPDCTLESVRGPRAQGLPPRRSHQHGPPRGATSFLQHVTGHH
The assay can be described thus: Inhibition of human recombinant HIPK4 at 15 nM related to control ULK1.

The target of assay [13] is Vascular endothelial growth factor receptor 1 (Homo sapiens) (UniProt P17948). Put plainly: Inhibition of human recombinant FLT1 at 15 nM related to control ULK1.
For assay [14], the target named is Casein kinase II subunit alpha (Homo sapiens) (UniProt P68400). The assay can be described thus: Inhibition of human recombinant CK2a1 at 15 nM related to control ULK1.
The target in assay [15] is Tau-tubulin kinase 2 (Homo sapiens) (UniProt Q6IQ55). The assay can be described thus: Inhibition of human recombinant TTBK2 at 15 nM in presence of ATP by radiometric assay relative to control.
The target in assay [16] is Calcium/calmodulin-dependent protein kinase type II subunit gamma (Homo sapiens) (UniProt Q13555). Put plainly: Inhibition of human recombinant CaMK2g at 15 nM in presence of ATP by radiometric assay relative to control.

Sequence of Serine/threonine-protein kinase PAK 4 (Homo sapiens) (O96013 whole entry, looked up): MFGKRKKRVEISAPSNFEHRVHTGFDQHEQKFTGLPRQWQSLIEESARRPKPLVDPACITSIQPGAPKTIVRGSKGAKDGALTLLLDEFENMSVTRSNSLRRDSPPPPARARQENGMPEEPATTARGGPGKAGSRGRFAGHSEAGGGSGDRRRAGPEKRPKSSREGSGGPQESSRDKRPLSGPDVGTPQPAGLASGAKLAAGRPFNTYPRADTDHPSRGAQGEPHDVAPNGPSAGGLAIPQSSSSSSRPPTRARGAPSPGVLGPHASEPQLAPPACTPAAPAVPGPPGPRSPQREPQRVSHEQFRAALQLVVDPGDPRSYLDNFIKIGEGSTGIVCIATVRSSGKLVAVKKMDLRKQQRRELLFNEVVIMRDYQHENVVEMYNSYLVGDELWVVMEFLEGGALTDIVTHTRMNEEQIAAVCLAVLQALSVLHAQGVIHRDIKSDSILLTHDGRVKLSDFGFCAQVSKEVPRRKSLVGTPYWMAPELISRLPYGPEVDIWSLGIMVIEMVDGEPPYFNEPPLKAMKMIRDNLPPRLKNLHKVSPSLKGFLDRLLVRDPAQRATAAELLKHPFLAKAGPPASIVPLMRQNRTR
Sequence of Vascular endothelial growth factor receptor 1 (Homo sapiens) (P17948 whole entry): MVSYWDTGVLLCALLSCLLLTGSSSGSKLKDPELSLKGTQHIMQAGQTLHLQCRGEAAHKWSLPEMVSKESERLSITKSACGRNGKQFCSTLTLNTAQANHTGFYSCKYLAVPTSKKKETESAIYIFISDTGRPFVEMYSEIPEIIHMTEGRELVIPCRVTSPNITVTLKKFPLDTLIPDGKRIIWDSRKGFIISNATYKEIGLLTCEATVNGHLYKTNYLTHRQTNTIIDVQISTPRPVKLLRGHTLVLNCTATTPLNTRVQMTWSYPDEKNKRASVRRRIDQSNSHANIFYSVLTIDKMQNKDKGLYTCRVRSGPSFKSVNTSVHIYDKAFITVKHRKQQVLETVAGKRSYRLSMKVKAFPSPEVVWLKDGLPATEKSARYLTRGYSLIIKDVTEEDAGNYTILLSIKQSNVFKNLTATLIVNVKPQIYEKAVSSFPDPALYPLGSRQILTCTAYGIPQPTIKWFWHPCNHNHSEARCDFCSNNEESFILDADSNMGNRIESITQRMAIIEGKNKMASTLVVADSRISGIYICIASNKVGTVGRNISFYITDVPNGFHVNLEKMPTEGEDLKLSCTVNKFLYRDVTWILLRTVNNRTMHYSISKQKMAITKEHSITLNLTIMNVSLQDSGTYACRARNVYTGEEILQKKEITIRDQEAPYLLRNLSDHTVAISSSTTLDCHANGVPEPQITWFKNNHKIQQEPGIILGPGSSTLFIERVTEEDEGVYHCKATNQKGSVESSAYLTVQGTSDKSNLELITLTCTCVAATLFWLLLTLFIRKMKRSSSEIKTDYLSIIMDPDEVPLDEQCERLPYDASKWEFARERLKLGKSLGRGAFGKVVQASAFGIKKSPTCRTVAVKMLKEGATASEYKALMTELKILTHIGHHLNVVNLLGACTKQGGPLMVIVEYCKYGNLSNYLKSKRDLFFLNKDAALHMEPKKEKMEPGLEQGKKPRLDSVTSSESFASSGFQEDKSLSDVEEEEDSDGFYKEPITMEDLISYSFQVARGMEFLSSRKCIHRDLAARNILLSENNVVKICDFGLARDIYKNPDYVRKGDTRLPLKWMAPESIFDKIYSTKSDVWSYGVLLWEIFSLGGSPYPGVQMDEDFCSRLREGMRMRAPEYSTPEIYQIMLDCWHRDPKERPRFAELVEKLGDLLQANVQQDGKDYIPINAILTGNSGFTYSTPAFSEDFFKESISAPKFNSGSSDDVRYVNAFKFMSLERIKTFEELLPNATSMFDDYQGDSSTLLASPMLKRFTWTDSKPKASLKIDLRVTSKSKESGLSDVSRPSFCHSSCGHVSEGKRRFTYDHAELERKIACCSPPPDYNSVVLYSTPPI
Sequence of Fibroblast growth factor receptor 4 (Homo sapiens) (P22455 22-802 limits assumed): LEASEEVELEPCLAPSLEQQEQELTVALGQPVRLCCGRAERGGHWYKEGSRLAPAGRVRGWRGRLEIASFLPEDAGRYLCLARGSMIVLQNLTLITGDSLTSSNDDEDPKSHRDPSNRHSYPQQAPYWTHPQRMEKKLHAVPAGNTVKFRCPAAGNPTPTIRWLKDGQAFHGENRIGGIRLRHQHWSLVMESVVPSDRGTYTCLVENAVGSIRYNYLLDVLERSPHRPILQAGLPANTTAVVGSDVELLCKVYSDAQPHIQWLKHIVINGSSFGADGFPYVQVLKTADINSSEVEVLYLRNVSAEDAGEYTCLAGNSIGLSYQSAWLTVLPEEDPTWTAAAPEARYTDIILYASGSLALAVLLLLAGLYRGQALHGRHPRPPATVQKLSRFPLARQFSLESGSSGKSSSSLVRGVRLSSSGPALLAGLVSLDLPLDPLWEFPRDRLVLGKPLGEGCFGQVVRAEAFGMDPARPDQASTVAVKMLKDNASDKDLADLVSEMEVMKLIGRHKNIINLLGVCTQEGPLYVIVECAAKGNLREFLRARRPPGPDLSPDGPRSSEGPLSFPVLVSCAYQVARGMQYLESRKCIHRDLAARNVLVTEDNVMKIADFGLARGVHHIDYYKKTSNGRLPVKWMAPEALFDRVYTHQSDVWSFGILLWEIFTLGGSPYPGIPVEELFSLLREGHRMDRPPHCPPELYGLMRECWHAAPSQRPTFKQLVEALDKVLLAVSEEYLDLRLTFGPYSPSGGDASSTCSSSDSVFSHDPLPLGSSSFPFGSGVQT
Sequence of Glycogen synthase kinase-3 beta (Homo sapiens) (P49841 whole entry, looked up): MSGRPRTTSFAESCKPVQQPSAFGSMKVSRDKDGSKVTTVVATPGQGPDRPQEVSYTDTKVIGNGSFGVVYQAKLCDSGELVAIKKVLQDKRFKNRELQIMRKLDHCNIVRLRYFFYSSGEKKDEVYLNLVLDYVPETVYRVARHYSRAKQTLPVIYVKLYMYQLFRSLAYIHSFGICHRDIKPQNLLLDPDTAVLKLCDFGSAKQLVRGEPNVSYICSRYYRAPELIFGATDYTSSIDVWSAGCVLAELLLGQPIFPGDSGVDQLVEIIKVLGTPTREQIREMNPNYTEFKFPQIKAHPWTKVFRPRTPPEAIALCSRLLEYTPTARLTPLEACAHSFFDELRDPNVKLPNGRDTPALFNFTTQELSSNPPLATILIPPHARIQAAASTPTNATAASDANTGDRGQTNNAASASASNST
Sequence of Hepatocyte growth factor receptor MET (Homo sapiens) (P08581 whole entry, looked up): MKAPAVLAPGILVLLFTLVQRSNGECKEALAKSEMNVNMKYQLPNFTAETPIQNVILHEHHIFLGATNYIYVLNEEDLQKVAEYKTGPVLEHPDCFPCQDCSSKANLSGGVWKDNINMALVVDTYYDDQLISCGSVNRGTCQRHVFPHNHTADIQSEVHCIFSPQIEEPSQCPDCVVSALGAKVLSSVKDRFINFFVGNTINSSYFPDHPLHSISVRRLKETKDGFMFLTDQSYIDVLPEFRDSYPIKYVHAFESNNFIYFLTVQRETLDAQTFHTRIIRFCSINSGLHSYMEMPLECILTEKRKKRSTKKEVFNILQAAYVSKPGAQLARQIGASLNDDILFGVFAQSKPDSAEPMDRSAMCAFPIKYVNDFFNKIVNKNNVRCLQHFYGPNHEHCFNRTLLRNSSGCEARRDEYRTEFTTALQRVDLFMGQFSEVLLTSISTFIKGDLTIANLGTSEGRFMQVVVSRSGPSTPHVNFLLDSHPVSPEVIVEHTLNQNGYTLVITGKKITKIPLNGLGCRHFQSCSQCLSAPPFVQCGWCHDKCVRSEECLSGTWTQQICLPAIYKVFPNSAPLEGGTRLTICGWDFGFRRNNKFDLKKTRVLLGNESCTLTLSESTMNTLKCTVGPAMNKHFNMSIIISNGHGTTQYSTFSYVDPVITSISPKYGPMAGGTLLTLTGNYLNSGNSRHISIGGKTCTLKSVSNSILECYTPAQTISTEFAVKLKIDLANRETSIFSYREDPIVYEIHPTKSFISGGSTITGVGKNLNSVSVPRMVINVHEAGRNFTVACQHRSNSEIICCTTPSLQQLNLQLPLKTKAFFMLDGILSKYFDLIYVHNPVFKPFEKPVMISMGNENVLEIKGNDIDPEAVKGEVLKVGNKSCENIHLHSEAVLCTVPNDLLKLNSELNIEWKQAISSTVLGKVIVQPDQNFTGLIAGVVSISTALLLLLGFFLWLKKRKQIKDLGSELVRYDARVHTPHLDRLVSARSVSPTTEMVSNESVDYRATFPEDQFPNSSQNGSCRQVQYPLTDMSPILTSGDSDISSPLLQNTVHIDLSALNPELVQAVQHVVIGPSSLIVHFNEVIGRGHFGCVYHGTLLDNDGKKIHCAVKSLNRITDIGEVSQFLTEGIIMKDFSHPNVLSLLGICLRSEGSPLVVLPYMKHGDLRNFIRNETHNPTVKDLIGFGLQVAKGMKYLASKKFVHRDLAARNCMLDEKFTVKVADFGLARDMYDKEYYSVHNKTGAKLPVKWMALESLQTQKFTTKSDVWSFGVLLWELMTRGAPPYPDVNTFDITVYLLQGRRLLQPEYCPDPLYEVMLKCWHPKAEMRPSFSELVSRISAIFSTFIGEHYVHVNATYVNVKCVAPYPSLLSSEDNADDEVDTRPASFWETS
Sequence of Casein kinase II subunit alpha (Homo sapiens) (P68400 whole entry, looked up): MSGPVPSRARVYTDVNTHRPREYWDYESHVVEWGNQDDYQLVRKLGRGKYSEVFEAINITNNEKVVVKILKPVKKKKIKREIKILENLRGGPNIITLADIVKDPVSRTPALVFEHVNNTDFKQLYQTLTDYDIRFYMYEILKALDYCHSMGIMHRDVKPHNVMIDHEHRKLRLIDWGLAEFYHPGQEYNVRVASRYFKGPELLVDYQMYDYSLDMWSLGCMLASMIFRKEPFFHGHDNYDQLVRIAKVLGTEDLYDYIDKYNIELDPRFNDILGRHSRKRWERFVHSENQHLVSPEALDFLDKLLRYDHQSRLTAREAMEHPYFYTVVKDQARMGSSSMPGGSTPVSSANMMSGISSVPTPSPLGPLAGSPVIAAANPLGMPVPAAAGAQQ

As usually defined, the inhibition is the relative decrease from the control value, in per cent. `O=C(N[C@@H](C1CC1)C(F)(F)F)c1cc(-c2cnn3cc(-c4ccc(F)cc4)cnc23)cs1`: the fold change (FC) came to 0.11 in assay [1]; 0.04 in [2]; 0 in assay [3]; 0 in assay [5]; 0 in assay [6]. Besides, the inhibition in assay [4] turned out to be 16%; in assay [7] it was 0%.
Regarding `CNC(=O)c1ccccc1Oc1nc(Nc2cc(OC)c(OC)c(OC)c2)ncc1Br`, the figures for the fold change (FC) in [8] and in assay [9] were 0.11 and 0.05, respectively. Also, the inhibition in assay [10] and in assay [11] was 0% in each case.
With `CC(C)[C@H](NC(=O)c1cc(-c2cnn3cc(-c4ccc(OCCN5CCCCC5)cc4)cnc23)cs1)C(F)(F)F`, the figures for the fold change (FC) in assay [12], in [13] and in [14] were 0, 0.1 and 0, respectively. Besides, the inhibition in [15] is 0%; in assay [16], 22%.

Source of the values: ChEMBL document CHEMBL5653631, “A Potent and Selective ULK1 Inhibitor Suppresses Autophagy and Sensitizes Cancer Cells to Nutrient Stress” (iScience, 2018).
